In article PMC10004634 (PLOS ONE, 2023):
Read-outs that look alike come from different tables or passages of the source.

Experiments:
Test in all cases: biochemical
Set-up in all cases: KINOMEscan scanMAX competition binding, DNA-tagged kinases, qPCR read-out, percent control at 300 nM
[1] = molecular target: HCK (Homo sapiens, UniProt P08631)
[2] = molecular target: T1, MLK2 (Homo sapiens, UniProt Q02779)
T1 construct: gene MAP3K10

[3] = molecular target: EGFR(L858R,T790M) (Homo sapiens, UniProt P00533, L858R/T790M)
EGFR(L858R,T790M), sequence (P00533 whole entry T790M/L858R): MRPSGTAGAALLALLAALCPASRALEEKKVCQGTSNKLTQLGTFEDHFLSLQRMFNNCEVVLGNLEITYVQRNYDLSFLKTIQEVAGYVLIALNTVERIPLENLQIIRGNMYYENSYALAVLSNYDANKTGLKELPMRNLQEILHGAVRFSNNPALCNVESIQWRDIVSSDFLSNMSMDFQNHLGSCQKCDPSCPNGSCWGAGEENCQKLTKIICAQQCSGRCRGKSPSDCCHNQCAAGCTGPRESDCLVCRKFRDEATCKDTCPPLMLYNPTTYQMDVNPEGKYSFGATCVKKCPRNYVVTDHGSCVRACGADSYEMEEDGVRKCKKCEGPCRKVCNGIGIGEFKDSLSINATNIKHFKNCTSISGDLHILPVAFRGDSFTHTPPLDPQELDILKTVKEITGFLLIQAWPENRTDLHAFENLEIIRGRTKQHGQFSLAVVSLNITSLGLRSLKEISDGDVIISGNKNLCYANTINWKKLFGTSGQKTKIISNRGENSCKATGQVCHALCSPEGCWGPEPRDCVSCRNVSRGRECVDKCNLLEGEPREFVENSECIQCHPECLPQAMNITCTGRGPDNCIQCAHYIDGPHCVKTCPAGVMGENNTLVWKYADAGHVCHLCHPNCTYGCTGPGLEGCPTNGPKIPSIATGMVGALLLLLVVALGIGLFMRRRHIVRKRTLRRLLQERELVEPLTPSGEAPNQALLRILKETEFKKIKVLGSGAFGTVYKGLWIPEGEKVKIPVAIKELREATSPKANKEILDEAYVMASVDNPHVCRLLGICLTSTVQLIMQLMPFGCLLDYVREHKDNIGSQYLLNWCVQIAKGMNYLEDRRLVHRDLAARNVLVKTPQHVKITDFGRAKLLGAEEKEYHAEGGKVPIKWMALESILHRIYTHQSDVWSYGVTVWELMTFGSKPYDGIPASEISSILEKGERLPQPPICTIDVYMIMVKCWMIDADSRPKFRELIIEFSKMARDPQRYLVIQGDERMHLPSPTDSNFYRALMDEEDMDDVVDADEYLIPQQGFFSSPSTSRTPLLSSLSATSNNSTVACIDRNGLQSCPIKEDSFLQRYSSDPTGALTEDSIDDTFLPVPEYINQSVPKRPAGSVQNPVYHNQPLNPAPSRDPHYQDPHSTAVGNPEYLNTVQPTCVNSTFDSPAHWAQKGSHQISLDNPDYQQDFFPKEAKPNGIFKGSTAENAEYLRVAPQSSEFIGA

[4] = molecular target: DYRK2 (Homo sapiens, UniProt Q92630)
DYRK2, sequence (Q92630 whole entry): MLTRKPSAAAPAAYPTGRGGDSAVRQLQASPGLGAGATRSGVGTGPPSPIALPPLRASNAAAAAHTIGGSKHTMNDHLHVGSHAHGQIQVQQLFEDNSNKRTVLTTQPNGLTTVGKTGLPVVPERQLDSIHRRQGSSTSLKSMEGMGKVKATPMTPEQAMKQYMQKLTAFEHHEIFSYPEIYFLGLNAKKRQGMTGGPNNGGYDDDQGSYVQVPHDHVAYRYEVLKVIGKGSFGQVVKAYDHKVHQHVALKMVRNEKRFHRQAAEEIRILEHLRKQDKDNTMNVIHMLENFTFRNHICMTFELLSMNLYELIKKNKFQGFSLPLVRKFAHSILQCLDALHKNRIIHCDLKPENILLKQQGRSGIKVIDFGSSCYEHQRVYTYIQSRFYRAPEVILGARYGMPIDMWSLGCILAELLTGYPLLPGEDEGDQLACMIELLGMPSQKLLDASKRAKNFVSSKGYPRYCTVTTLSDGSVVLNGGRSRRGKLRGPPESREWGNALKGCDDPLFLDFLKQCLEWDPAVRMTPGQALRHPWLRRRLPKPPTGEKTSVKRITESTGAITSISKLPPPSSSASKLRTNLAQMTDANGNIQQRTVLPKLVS

[5] = molecular target: T2, ERK4 (Homo sapiens, UniProt P31152)
T2 construct: gene MAPK4

[6] = molecular target: T3, QSK (Homo sapiens, UniProt Q9Y2K2)
T3 construct: gene SIK3

[7] = molecular target: ACVR2B (Homo sapiens, UniProt Q13705)
[8] = molecular target: CDK8 (Homo sapiens, UniProt P49336)
CDK8, sequence (P49336 whole entry): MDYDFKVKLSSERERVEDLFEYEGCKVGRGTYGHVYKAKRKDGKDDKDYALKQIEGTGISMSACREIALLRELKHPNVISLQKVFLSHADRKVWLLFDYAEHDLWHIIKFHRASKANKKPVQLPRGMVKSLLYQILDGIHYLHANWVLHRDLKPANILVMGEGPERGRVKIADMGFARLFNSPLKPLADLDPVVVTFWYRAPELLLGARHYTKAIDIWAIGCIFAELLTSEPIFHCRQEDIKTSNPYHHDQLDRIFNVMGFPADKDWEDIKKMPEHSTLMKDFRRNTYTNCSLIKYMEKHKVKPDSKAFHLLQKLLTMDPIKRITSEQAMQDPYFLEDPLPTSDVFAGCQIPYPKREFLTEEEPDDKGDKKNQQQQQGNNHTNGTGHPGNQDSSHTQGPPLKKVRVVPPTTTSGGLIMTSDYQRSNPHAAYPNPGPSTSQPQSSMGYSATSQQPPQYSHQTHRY

[9] = molecular target: T4, OSR1 (Homo sapiens, UniProt O95747)
T4 construct: gene OXSR1

[10] = molecular target: KIT(A829P) (Homo sapiens, UniProt P10721, A829P)
[11] = molecular target: PLK4 (Homo sapiens, UniProt O00444)
PLK4, sequence (O00444 whole entry): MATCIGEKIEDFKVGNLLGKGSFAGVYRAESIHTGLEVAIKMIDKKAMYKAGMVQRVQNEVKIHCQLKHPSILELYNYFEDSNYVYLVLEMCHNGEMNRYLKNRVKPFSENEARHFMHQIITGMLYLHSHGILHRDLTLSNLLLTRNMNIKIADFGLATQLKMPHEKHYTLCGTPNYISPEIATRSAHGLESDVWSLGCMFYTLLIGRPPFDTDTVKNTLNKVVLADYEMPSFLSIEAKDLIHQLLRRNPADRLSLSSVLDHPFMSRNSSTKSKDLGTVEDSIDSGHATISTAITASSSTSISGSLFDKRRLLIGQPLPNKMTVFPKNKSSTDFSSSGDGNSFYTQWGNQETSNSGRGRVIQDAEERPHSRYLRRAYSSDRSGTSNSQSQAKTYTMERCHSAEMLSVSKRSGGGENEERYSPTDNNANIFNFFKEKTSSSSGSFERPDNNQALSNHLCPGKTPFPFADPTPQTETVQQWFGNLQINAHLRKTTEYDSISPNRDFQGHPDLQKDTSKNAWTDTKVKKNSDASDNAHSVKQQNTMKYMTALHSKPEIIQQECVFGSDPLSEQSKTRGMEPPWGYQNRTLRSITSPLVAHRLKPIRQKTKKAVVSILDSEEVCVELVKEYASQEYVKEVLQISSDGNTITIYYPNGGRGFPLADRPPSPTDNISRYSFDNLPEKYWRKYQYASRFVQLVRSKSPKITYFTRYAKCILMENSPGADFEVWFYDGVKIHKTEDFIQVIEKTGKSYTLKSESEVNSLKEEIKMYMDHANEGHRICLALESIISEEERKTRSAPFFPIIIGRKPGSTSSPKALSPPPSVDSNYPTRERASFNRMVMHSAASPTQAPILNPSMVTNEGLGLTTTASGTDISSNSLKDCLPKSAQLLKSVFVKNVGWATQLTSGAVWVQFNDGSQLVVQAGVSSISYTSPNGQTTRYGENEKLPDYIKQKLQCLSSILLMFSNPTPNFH

[12] = molecular target: T5, LKB1 (Homo sapiens, UniProt Q15831)
T5 construct: gene STK11
T5 sequence (Q15831 whole entry): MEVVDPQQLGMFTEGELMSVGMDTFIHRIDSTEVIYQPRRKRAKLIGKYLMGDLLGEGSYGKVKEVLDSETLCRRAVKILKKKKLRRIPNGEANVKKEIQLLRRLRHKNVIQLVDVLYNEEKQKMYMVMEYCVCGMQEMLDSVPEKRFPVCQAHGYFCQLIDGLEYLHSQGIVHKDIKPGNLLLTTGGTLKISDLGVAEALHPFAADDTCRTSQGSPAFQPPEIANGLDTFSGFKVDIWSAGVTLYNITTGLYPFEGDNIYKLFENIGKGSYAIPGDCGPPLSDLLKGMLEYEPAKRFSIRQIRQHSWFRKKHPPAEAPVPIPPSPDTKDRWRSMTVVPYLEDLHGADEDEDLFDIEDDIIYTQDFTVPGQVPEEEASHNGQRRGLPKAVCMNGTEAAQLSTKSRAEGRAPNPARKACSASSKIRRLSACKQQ

[13] = molecular target: T6, AMPK-alpha1 (Homo sapiens, UniProt Q13131)
T6 construct: gene PRKAA1

[14] = molecular target: PRKD1 (Homo sapiens, UniProt Q15139)
[15] = molecular target: T7, RSK4(Kin.Dom.1-N-terminal) (Homo sapiens, UniProt Q9UK32)
T7 construct: gene RPS6KA6; Kin.Dom.1-N-terminal

[16] = molecular target: T8, CDK4-cyclinD3 (Homo sapiens, UniProt P11802)
T8 construct: cyclinD3
T8 sequence (P11802 whole entry): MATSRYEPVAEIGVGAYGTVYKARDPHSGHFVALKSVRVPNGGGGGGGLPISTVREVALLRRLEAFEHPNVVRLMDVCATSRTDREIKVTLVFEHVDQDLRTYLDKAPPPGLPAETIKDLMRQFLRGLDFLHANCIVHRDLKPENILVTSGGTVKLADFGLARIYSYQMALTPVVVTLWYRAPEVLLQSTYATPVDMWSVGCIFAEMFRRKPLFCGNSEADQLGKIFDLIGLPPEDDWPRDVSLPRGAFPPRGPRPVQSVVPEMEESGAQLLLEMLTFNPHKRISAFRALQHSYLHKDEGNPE
T8 sequence (P30281 whole entry partner): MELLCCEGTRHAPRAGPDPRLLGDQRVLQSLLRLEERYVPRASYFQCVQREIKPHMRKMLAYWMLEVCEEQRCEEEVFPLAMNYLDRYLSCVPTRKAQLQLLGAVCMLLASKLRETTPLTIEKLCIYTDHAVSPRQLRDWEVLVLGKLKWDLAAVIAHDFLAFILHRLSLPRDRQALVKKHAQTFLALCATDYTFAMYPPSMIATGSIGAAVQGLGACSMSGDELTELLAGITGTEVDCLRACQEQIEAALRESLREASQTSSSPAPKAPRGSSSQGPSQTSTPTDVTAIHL

[17] = molecular target: PIM1 (Homo sapiens, UniProt P11309)
PIM1, sequence (P11309 whole entry): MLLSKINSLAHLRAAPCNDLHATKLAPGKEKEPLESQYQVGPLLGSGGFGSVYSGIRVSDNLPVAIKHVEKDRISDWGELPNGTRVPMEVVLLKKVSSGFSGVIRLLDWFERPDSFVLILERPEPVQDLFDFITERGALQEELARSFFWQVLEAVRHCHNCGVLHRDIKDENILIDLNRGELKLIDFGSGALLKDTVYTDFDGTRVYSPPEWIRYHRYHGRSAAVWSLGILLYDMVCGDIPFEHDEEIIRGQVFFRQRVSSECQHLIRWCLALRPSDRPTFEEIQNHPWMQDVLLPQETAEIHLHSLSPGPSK

[18] = molecular target: INSRR (Homo sapiens, UniProt P14616)
[19] = molecular target: T9, MKK7 (Homo sapiens, UniProt O14733)
T9 construct: gene MAP2K7

[20] = molecular target: T10, MEK3 (Homo sapiens, UniProt P46734)
T10 construct: gene MAP2K3
T10 sequence (P46734 whole entry): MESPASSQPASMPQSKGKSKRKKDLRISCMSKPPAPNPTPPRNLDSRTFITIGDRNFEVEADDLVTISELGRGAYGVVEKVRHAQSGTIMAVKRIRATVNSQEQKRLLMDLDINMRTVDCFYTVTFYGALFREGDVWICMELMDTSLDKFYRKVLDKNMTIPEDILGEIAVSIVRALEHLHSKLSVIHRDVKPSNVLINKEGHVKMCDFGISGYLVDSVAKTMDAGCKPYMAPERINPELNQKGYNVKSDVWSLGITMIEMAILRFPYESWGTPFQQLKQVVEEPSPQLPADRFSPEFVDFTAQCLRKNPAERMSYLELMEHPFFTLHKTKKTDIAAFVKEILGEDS

[21] = molecular target: T11, DRAK1 (Homo sapiens, UniProt Q9UEE5)
T11 construct: gene STK17A

[22] = molecular target: MYO3A (Homo sapiens, UniProt Q8NEV4)
[23] = molecular target: FYN (Homo sapiens, UniProt P06241)
[24] = read-out: Percent control / Tirabrutinib
[25] = read-out: Percent control / Zanubrutinib
[26] = read-out: Percent control / Acalabrutinib
[27] = read-out: Percent control / Ibrutinib

In the case of CC#CC(=O)N1CC[C@@H](n2c(=O)n(-c3ccc(Oc4ccccc4)cc3)c3c(N)ncnc32)C1 [Tirabrutinib], the remaining binding at 0.3 µM [1, 24] is reported as 57%, the remaining binding at 0.3 µM [2, 24] is reported as 77% and the remaining binding at 0.3 µM [3, 24] is reported as 100%. The remaining binding at 0.3 µM [4, 24] was 99%.

C=CC(=O)N1CCC([C@@H]2CCNc3c(C(N)=O)c(-c4ccc(Oc5ccccc5)cc4)nn32)CC1 [Zanubrutinib] showed a remaining binding at 0.3 µM [5, 25] of 99%, a remaining binding at 0.3 µM [6, 25] of 45% and a remaining binding at 0.3 µM [7, 25] of 91%. The remaining binding at 0.3 µM [8, 25] was 100%, the remaining binding at 0.3 µM [9, 25] was 100% and the remaining binding at 0.3 µM [10, 25] was 97%. The remaining binding at 0.3 µM [11, 25] was 84%, the remaining binding at 0.3 µM [12, 25] was 84% and the remaining binding at 0.3 µM [13, 25] was 88%. It also gave a remaining binding at 0.3 µM [14, 25] of 82%, a remaining binding at 0.3 µM [15, 25] of 100% and a remaining binding at 0.3 µM [16, 25] of 98%. The remaining binding at 0.3 µM [17, 25] was 73%, the remaining binding at 0.3 µM [4, 25] was 81% and the remaining binding at 0.3 µM [18, 25] was 96%. It also gave a remaining binding at 0.3 µM [19, 25] of 80%.

CC#CC(=O)N1CCC[C@H]1c1nc(-c2ccc(C(=O)Nc3ccccn3)cc2)c2c(N)nccn12 [Acalabrutinib] showed a remaining binding at 0.3 µM [5, 26] of 96%, a remaining binding at 0.3 µM [20, 26] of 99% and a remaining binding at 0.3 µM [6, 26] of 90%. The remaining binding at 0.3 µM [7, 26] was 85%, the remaining binding at 0.3 µM [8, 26] was 93% and the remaining binding at 0.3 µM [21, 26] was 95%. For the same compound, the remaining binding at 0.3 µM [3, 26] was 97%, the remaining binding at 0.3 µM [9, 26] was 92% and the remaining binding at 0.3 µM [10, 26] was 80%. For the same compound, the remaining binding at 0.3 µM [12, 26] was 94%, the remaining binding at 0.3 µM [14, 26] was 95% and the remaining binding at 0.3 µM [15, 26] was 82%. The remaining binding at 0.3 µM [16, 26] was 97%, the remaining binding at 0.3 µM [17, 26] was 94% and the remaining binding at 0.3 µM [22, 26] was 75%. For the same compound, the remaining binding at 0.3 µM [23, 26] was 95% and the remaining binding at 0.3 µM [18, 26] was 91%.

In the case of C=CC(=O)N1CCC[C@@H](n2nc(-c3ccc(Oc4ccccc4)cc3)c3c(N)ncnc32)C1 [Ibrutinib], the remaining binding at 0.3 µM [20, 27] is reported as 93%, the remaining binding at 0.3 µM [1, 27] is reported as 4.5% and the remaining binding at 0.3 µM [2, 27] is reported as 90%. For the same compound, the remaining binding at 0.3 µM [21, 27] was 74%, the remaining binding at 0.3 µM [11, 27] was 86% and the remaining binding at 0.3 µM [13, 27] was 92%. The remaining binding at 0.3 µM [22, 27] was 96%, the remaining binding at 0.3 µM [23, 27] was 19% and the remaining binding at 0.3 µM [19, 27] was 8.1%.
